Results taken from publication PMC8533219, “Evaluation of the Antioxidant, Antidiabetic, and Antiplasmodial Activities of Xanthones Isolated from Garcinia forbesii and Their In Silico Studies” (Biomedicines, 2021).
Values joined by “and” are separate entries in the source; they are usually repeats but may differ in a detail not shown here. Equal values may be shown once. Read-outs that look alike come from different tables or passages of the source.

What was measured:
α-glucosidase = conditions: cited from earlier work
[1] = DPPH radical scavenging assay; conditions: for IC50: IC50 > 1000 μM = inactive
Method: DPPH (1,1-diphenyl-2-picrylhydrazyl) was used for the antioxidant test using quercetin and gallic acid as controls. The compounds were diluted at concentrations of 159.73, 79.87, 39.93, 19.97, 9.98 µg/mL. A total 1 mL of DPPH 6 × 10^−5 M solution, complete with 33 µL of the compound, was incubated at 37 °C for 20 min. […] The radical inhibitory activity was calculated using the equation [(Ab-As)/Ab] × 100%.

[2] = ABTS radical scavenging assay; conditions: for IC50: IC50 > 1000 μM = inactive
Method: The antioxidant activity was also determined by free radical ABTS (2,2″-azinobis (3-ethyl benzothiazoline-6-sulfonic acid) according to the reported procedure. In this test, 7 mM ABTS solution was prepared and mixed with a buffer solution of potassium peroxydisulfate, incubated for 16 h, and protected from light. A total of 10 μL of the sample and 1 mL of the ABTS was incubated for 4 min and measured at a wavelength of 734 nm. This experiment was performed triplo using quercetin and gallic acid as controls. The ABTS inhibitory activity was calculated by the equation [(Ab-As)/Ab] × 100%.

[3] = molecular target: rat intestinal α-glucosidase; assay: Rat intestinal α-glucosidase inhibitory activity; assay type: biochemical; conditions: IC50 > 1000 μM = inactive
Method: The inhibitory activity of rat intestinal α-glucosidase was determined according to previously reported method with slight modifications. This procedure was performed by classifying four mixtures in different groups. The mixture (1) labelled “Blank of enzyme reaction” contained the mixture and DMSO (10 µL), sodium phosphate buffer (50 µL), glucose kit (80 µL), enzyme (20 µL) and substrate (20 µL maltose, sucrose 20 µL). A 10 µL of sample and samples with various concentrations of compounds was added to the well Plates (3) and (4). A 50 µL of sodium phosphate buffer (pH 6.9) was then added to well Plates (1) and (3), and a 30 µL of the buffer was added to well Plates (2) and (4), respectively. The substrate (maltose, 20 µL; sucrose 20 µL) was then added to the Plates (2) and (4). A glucose kit (80 µL each) and the enzyme (20 µL) were added to all plates and were incubated for 10 min for maltose and 40 min for sucrose. Finally, the absorbance was then measured at λ = 520 nm using a microplate reader (BioTek ELx800TM, BioTek Instruments, Inc., Winooski, VT, USA).

Plasmodium falciparum = conditions: read-out: IC50 against Plasmodium falciparum; cited from earlier work
P. falciparum strain 3D7 = assay: In vitro antiplasmodial assay (pLDH method); assay type: cell-based; conditions: Plasmodium falciparum; for inhibition at 10 µg/mL: read-out: % Inhibition (10 μg/mL)
Method: The parasites used in this test were synchronized (Ring stage) with ± 0.3% parasitemia (2% hematocrit). […] The well plates were put in the chamber with mix gas atmosphere (O2 5%, CO2 5% and N2 90%) and incubated for 72 h at 37 °C. After that, the plate was harvested and stored at −30 °C. After 24 h, the pLDH assay was performed by reading the absorbance at 650 nm using a SpectraMax Paradigm® Multi-Mode microplate reader.

[4] = set-up: method as in PMID 33711431; conditions: read-out: DPPH scavenging IC50; cited from earlier work
[5] = Ferric reducing-antioxidant power (FRAP) assay; conditions: for FRAP: reduction power
Method: The FRAP assay was determined according to the described method using 300 mM acetate buffer, 40 mM HCl, 10 mM (2,4,6 Tris(2-pyridyl)-s-triazine (TPTZ)), 20 mM FeCl3·6H2O. For standard curve comparison, a 10:1:1 (acetate buffer: TPTZ: H2O) and sample ratio 10:1:1 (acetate buffer: TPTZ: FeCl3·6H2O) were constructed. The standard curve was prepared using various concentrations of FeSO4·7H2O. The reaction mixture was incubated at 37 °C for 30 min followed by measurement of the absorbance at 593 nm. In this test, the reduction capacity of the tested compound calculated concerning the reaction signal given by the Fe^2+ solution. The FRAP value was expressed as µM Fe^2+/g ((Frap value of sample (µM) = abs (sample) × FRAP value of std (µM)/abs (std).

[6] = molecular target: T1, Porcine pancreatic α-amylase (Sus scrofa, UniProt P00690); assay: α-Amylase inhibitory activity; assay type: biochemical; conditions: read-out: α-Amylase Starch IC50
T1 sequence (P00690 16-511): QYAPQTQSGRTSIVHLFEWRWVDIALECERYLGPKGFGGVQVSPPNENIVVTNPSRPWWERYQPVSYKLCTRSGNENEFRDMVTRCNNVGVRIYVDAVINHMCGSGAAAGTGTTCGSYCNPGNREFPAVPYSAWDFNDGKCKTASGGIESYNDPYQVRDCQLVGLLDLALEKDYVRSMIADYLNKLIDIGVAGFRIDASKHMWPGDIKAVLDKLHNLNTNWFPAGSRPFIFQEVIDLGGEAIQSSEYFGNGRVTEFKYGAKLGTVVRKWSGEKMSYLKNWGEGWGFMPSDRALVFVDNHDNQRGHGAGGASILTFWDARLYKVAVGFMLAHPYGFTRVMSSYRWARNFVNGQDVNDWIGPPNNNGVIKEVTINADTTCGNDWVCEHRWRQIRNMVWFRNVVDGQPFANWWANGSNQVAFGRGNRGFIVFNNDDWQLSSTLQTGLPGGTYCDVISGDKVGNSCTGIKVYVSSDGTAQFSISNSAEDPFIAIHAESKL
Method: The modified α-amylase enzyme inhibition test was conducted for antidiabetic activity evaluation. A total of 10 mg sample was dissolved in 1 mL DMSO and 0.1 M phosphate buffer and 5 mg α-amylase solution (Porcine pancreatic α-amylase) in 1 mL phosphate buffer pH 6.9 was added. A 100 mg of potato starch (substrate) was heated in 5 mL of 0.1 M phosphate buffer for 5 min and cooled to room temperature. Then, 20 µL of the sample and 50 µL of substrate were mixed into 30 µL of phosphate buffer. The mixture was pre-incubated for 5 min followed by the addition of 20 µL of α-amylase enzyme and then incubation at 37 °C for 15 min. The color development was performed by adding 50 µL of 1M HCl and 50 µL of 10% iodine solution. Finally, the absorbance was measured at a wavelength of 650 nm.

[7] = substrate maltose, read-out: α-Glucosidase Maltose IC50
[8] = substrate sucrose, read-out: α-Glucosidase Sucrose IC50
[9] = P. falciparum 3D7, 10 μg/mL, 72 h
[10] = P. falciparum 3D7, 72 h, read-out: IC50

Row | Compound | DPPH % Inhibition (159.7 μg/mL) [1] [%] | IC50 [1] [µM] | ABTS % Inhibition (99 μg/mL) [2] [%] | IC50 [2] [µM] | IC50 [3, 7] [µM] | IC50 [3, 8] [µM] | FRAP [5] | IC50 [6] [µM] | inhibition at 10 µg/mL (P. falciparum strain 3D7; [9]) [%] | further results
1 | subelliptenone F | – | – | – | – | – | – | – | – | – | IC50 (α-glucosidase): 4.1 µM
2 | O=c1c(O)c(-c2ccc(O)c(O)c2)oc2cc(O)cc(O)c12 [Quercetin, reference compound] | 96.34 ± 0.01 | 4.1 ± 0.01 | 97.58 ± 0.01 | 0.17 ± 0.01 | – | – | – | – | – | –
3 | C[C@H]1O[C@H](O[C@H]2[C@H](O)[C@@H](O)[C@@H](O[C@H]3[C@H](O)[C@@H](O)C(O)O[C@@H]3CO)O[C@@H]2CO)[C@H](O)[C@@H](O)[C@@H]1N[C@H]1C=C(CO)[C@@H](O)[C@H](O)[C@H]1O (stereo partly drawn) [Acarbose, reference compound] | – | – | – | – | 3.4 ± 0.27 | 4.6 ± 0.51 | – | – | – | –
4 | CCN(CC)CCCC(C)Nc1ccnc2cc(Cl)ccc12 (stereo not drawn) [Chloroquine, reference compound] | – | – | – | – | – | – | – | – | – | IC50 (Plasmodium falciparum): 0.3 µM; IC50 (P. falciparum strain 3D7; 3D7, 72 h): 0.006 ± 0.01 µM; inhibition at 10 µg/mL (P. falciparum strain 3D7; 3D7, 72 h): 98.8 ± 0.25%
5 | O=c1c2cc(O)c(O)cc2oc2cc(O)cc(O)c12 [1,3,6,7-tetrahydroxyxanthone] | – | – | – | – | – | – | – | – | – | IC50 [4]: 28.4 µM
6 | garcinoxanthones SV | – | – | – | – | – | – | – | – | – | IC50 [4]: 68.5 µM
7 | CC(C)=CCc1c(O)cc2oc3c(CC=C(C)C)c(O)c(O)c(CC=C(C)C)c3c(=O)c2c1O [garcinone E] | – | – | – | – | – | – | – | – | – | IC50 [4]: 63.1 µM
8 | CC(C)=CCC/C(C)=C/Cc1c(O)c(O)cc2oc3cc(O)c(CC=C(C)C)c(O)c3c(=O)c12 [norcowanin] | – | – | – | – | – | – | – | – | – | IC50 (α-glucosidase): 1.7 µM
9 | C=CC(C)(C)c1cc(O)c2oc3c4c(ccc3c(=O)c2c1O)C=CC(C)(C)O4 [Compound 4, garciniaxanthone B] | 95.38 ± 0.08 | 14.1 ± 0.07 | 96.15 ± 0.01 | 7.9 ± 0.01 | 139.4 ± 1.21 | 75.9 ± 2.11 | 192.7 µM Fe^2+/g and 192.7 ± 0.77 µM Fe^2+/g | 10.8 ± 0.04 | < 10 | –
10 | C=CC(C)(C)c1cc(O)c2oc3c(O)cccc3c(=O)c2c1O [Compound 3, 12b-hydroxy-des-D-garcigerrin A] | 96.83 ± 0.03 | 18.9 ± 0.1 | 98.31 ± 0.05 | 0.05 ± 0.01 | 109 ± 1.31 | 79.6 ± 2.01 | 203.9 ± 1.19 µM Fe^2+/g | 28.7 ± 0.35 | 87.9 ± 0.23 | ABTS IC50, fold lower than quercetin ([2]; relative to quercetin): 4 fold; Iron reducing power, fold greater than ascorbic acid ([5]; relative to ascorbic acid): approximately 6 fold; IC50 (P. falciparum strain 3D7; [10]): 5 ± 0.04 µM
11 | O=C1O[C@H]([C@@H](O)CO)C(O)=C1O [Ascorbic acid, reference compound] | – | – | – | – | – | – | 30.6 ± 0.27 µM Fe^2+/g | – | – | FRAP ([5]; listed as ascorbic acid): 30.6 µM Fe^2+/g; IC50 [4]: 48 µM
12 | C=CC(C)(C)c1cc(O)c(O)c2c(=O)c3cc4c(c(O)c3oc12)OC(C)(C)C=C4 [Compound 2, subelliptenone H] | 95.29 ± 0.05 | 19.4 ± 0.15 | 97.29 ± 0.04 | 2.7 ± 0.05 | – | 43.8 ± 1.51 | 166.3 µM Fe^2+/g and 166.3 ± 1.47 µM Fe^2+/g | 41.3 ± 1.24 | 86.8 ± 0.33 | IC50 (P. falciparum strain 3D7; [10]): 3.3 ± 0.04 µM
13 | COc1cc(C)c2c(=O)c3c(O)cc(OC)cc3oc2c1 [Compound 1, lichexanthone] | – | > 1000 | – | > 1000 | > 1000 | > 1000 | 5.7 ± 0.57 µM Fe^2+/g | > 1000 | < 10 | α-Glucosidase Maltose IC50 ([3]; substrate maltose): inactive; α-Glucosidase Sucrose IC50 ([3]; substrate sucrose): inactive
14 | O=C(O)c1cc(O)c(O)c(O)c1 [Gallic acid, reference compound] | 97.21± 0.01 | 3 ± 0.01 | 96.30 ± 0.01 | 0.7 ± 0.01 | – | – | – | – | – | –
15 | C=CC(C)(C)c1cc(O)c2oc3c4c(ccc3c(=O)c2c1O)[C@H](O)[C@H](O)C(C)(C)O4 [Compound 5, garcigerin A] | 96.60 ± 0.05 | 20.4 ± 0.22 | 97.40 ± 0.03 | 6.5 ± 0.02 | 91 ± 1.14 | 37.4 ± 1.2 | 187.8 µM Fe^2+/g and 187.8 ± 1.36 µM Fe^2+/g | 18.7 ± 0.54 | < 10 | –
